“Also recorded” adds a separate entry of the source.
Columns and labels:
Aβ1-40 peptide = target: T1, Aβ1-40 peptide (Homo sapiens, UniProt P05067); assay: ThT assay of Aβ aggregation; type: biochemical; conditions: THC 0.25-250 nM; Aβ1-40 1 μM; FIG. 3A
T1 construct: purchased Biomer Technology, Pleasanton, Calif
Procedure: A ThT assay was conducted to examine the interaction between THC and Aβ, as ThT incorporates into Aβ when the amyloid protein aggregates, indicating whether there is a direct interaction between THC and Aβ aggregation.
Hexafluoroisopropanol-(HFIP) pretreated Aβ1-40 peptide (Biomer Technology, Pleasanton, Calif.). THC solution was prepared at concentration of 250 nM, 25 nM, 2.5 nM, and 0.25 nM in thioflavin T (ThT) (1.6 μg/mL dissolved in 20 mM Tris-HCL). The THC-ThT was added into black 96 well plates. Unaggregated Aβ peptide solution was thawed, diluted, and immediately added to wells, making the final concentration of Aβ1-40 at 1 μM. Control groups were setup as: 1) aggregation control; 2) control with ThT buffer only; and 3) Tris-HCl buffer only. Plate was mixed and fluorescence was read at 482 nm with excitation 440 nm with Biotek All-in-One plate reader. Fluorescence was screened for 2 hours with 5-minute intervals.

[1] = target: Aβ peptide amino acids 1-10, the major B-cell epitope (Homo sapiens, UniProt P05067); assay: ELISA for THC interference with the major B cell epitope of Aβ; type: binding; conditions: each increasing concentration of THC; FIG. 3B
Sequence of Aβ peptide amino acids 1-10, the major B-cell epitope (P05067 672-711 limits assumed): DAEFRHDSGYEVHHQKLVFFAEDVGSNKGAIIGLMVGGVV
Procedure: In untreated samples, Aβ peptide increased in intensity for the first 20 minutes, followed by a plateauing of fluorescence at around 30 minutes, at which time the intensity remained constant for the duration of the study. […] Therefore, THC's direct interaction with the Aβ peptide will not dampen an immune response to clear the Aβ peptide. Further analysis with western blot was performed measuring the anti-aggregation properties of THC with Aβ peptide.

[2] = test system: Aβ40 in N2a/AβPPswe cells; assay: Aβ40 ELISA after one or two THC administrations 24 hours apart; type: cell-based, human; conditions: FIG. 9B
Procedure: Studies were conducted on multiple dosings of THC. N2a/AβPPswe cells, as discussed in Example 1, were suspended to 2×10^5/mL, 3 mL plated into each well, and grown in DMEM with 10% fetal bovine serum, 100 U/mL penicillin, 100 μg/mL streptomycin, and 400 μg/mL G418 (Invitrogen), at 37° C. in the presence of 5% CO2. N2a/AβPPswe cells were subcultured using trypsin, and pipetted numerous times to ensure cells were separated into individual cells. Cells were counted, as provided in Example 1, and proper amount of cell medium and fresh medium was added into new flasks according to the ratio of dilution. Pipetting was performed 10 times to homogenize cells, and 3 mL of cells were seeded into medium into each 6 well plate. When one pipette was used up, the cells were mixed in the flask before using them for the next pipette. Compounds were suspended in DMSO, as provided in Example 1.
12 hours after plating, cells were treated with various concentrations of Δ9-THC (T4764-1ML Sigma Aldrich, Merck KGaA; Darmstadt, Germany), with untreated N2a/AβPPswe cells used as a control. Multiple dosing regimens were carried out 24 hours after initial treatment. Treatment was then washed out, i.e. the medium was then removed from the cultures and 3 mL of media containing the treatment compounds were added. […]

T1 sequence (P05067 672-711): as the sequence (P05067 672-711 limits assumed) above

CCCCCc1cc(O)c2c(c1)OC(C)(C)[C@@H]1CCC(C)=C[C@@H]21 [THC, Δ9-tetrahydrocannabinol]
Thioflavin T fluorescence intensity / Aβ aggregation (Aβ1-40 peptide): lowers Aβ aggregation; also recorded: dose-dependent decrease; also recorded: inhibits Aβ40 aggregation | Interference with the major B cell epitope of Aβ (ELISA absorbance) [1]: No identified interference; also recorded: no significant difference in absorbance | Aβ40 (pg/ml) concentrations after one or two administrations ([2]; designated concentrations of THC): decreases Aβ40 | Aβ40 in cells treated twice with THC 24 hours apart versus once ([2]; from 12 μM and higher concentrations): significant decrease in Aβ40 concentration compared to cells treated once; also recorded: even greater reduction in Aβ levels

Source: US11446276B2, “Extreme low dose THC as a therapeutic and prophylactic agent for Alzheimer's disease” (University of South Florida, priority 2015, dated 2022)
